Tests used:
sheep = settings: 120 mg/kg bromide
Method: KBr solution was administered via an orogastric tube, then flushed with 500 mL water. Blood samples were collected at 0, 1, 2, 3, 4, 6, 8, 10, 12, 24 h, then at 12 h intervals to 240 h, then at 24 h intervals to 336 h. A final sample was taken at 504 h. When collecting blood samples at 1 h through to 10 h the rumen was auscultated, over the caudo-dorsal blind sack, to determine if the high salt load affected rumen motility.

[1] = system: lolitrem B toxicosis (Rye Grass Staggers); assay: Clinical and neurological signs in sheep fed lolitrem B-containing toxic feed with or without potassium bromide; assay type: in vivo; settings: sheep, Group 5: prophylactic oral KBr only
Method: Animals were exposed to a controlled diet containing 0.16 mg/kg body weight (BW) lolitrem B toxin rising to 0.27 mg/kg BW after 21 days exposure to toxic feed. Toxin was delivered as perennial rye grass seed (GA66 AR98, Grasslanz Technology Ltd, NZ) containing very high levels of lolitrem B toxin (11 ppm DM) as a component of the animal's feed intake.
On entry to the trial, all animals receiving toxic feed were exposed to a diet containing experimental ryegrass seed with a final lolitrem B concentration of 0.08 mg/kg LW, lucerne chaff and molasses 30% w/v for 3 days. After this induction period, the toxin content of the feed was increased to 0.16 mg/kg LW for the duration of the trial. […] Ryegrass seed constituted up to 65% of available Feed on Offer (FOO) by dry weight contributing a metabolisable energy of 12.1 Mj/kg DM.
At entry to the trial, all animals were subjected to a full clinical examination. Live weight was recorded. Venous blood and urine samples were collected for laboratory. Animals were also subjected to gait analysis, neurological examination including proprioceptive testing, cranial nerve examination and papillary light and menace reflexes. Electromyography (EMG) of tricep and neck muscles was performed. Gait analysis (see below) was repeated at three day intervals until onset of significant clinical signs and/or gait abnormality at which point animals were subjected to gait analysis daily. Gait analysis was recorded on video each occasion.
General clinical signs were also noted on a daily basis; these included observations of nervousness or agitation, changes in normal placement of body, limb or head position changes in faecal consistency, feeding behaviour or water consumption, observeable tremor of the body or head, eye position (strabismus) and movement (nystagmus), locomotory disturbances, or any other clinical changes worthy of note. Feed and water intake was monitored daily for the duration of the trial. Heart rate, respiration rate at rest and rectal temperature were also monitored daily.
Prophylactic sheep received a split loading dose of 300 mg/kg on day 1, 120 mg/kg (100 mg LD+20 mg/kg daily maintenance dose) on day 2, 120 mg/kg on day 3 and 20 mg/kg daily for the duration of the trial. An acute treatment dose of 300 mg/kg LW was used for the trial. Both prophylactic and acute treatment doses were envisaged to give serum concentrations of 750 to 1000 μg/ml for the duration of the initial weeks of the trial.
Group 1—Negative Control: lucerne chaff only;
Group 2—Positive Control: lucerne chaff containing 0.16 mg/kg LW lolitrem B;
Prophylactic treatment sheep (Groups 4 & 5) received a split loading dose of 300 mg/kg on day 1 of the trial, 120 mg/kg (100 mg LD 20 mg/kg daily maintenance dose) on day 2, 120 mg/kg on day 3 and 20 mg/kg daily thereafter. Acute therapy sheep were dosed with a single dose of 300 mg/kg on day of falling.
End of the trial was defined for Groups 2 and 3 as date of falling. Group 1 animals entered the end of trial protocol with their Group 2 counterparts. Group 4 and 5 animals entered the end of trial protocol after 22 days. This end of trial protocol consisted of the following analysis: • On Day 1: animals were subjected to a full clinical examination, gait analysis, urine and blood collection, neurological examination and EMG. • On Day 2: further gait analysis was recorded, • On Day 3: animals were again subjected to full clinical examination, gait analysis, urine and blood collection, neurological examination and EMG as well as live weight recorded prior to necropsy.

[2] = system: lolitrem B toxicosis (Rye Grass Staggers); assay: Gait analysis and time to falling; assay type: in vivo, sheep
Method: Gait analysis was performed on entry to the trial and at designated time points throughout the trial as described above. To achieve this, animals were moved from their individual pens to an external yard in their cohort groups (five animals, one from each treatment). Animals were then encouraged to move at a run, initially in a group and then individually, for a minimum of three minutes per animal whilst their movement was captured on video and gait observations recorded.
Once all animals had been analysed the whole cohort was returned to their individual pens. Gait abnormalities such as stumbling, falling or disorientation were noted, including observation of Type 1 or Type 2 gait changes as described in Combs et, al., (2014). Type I movement disorder is defined as an impaired alternating movement (dysdiadochokinesia), bunny-hopping gait and failure to maintain an appropriate direction. Type 2 movement disorder is defined by increasing rigidity of limbs on forced movement resulting finally in tonic fore and hind limb extension with the animal collapsing into sternal or lateral recumbency (Combs, Rendell et at 2014). Scores between those denoted above were considered as a gradation between the stated clinical observations. Analysis of gait was performed using the following scale in Table 2 and a composite score noted for each animal for each day during the end of trial protocol. A total score out of 30 was determined for each animal. The higher the score the greater the locomotory disturbance. Time to falling was determined post trial by analysis of video material,
Animals that met the entry criteria (severe Type 2 gait abnormality and falling) were submitted to the end-of-trial protocol. […] Animals were subjected to the following tests on days 1 and 3: gait analysis, full neurological examination, venous blood and urine sampling and EMG. Only gait analysis was performed on day 2.

[3] = Serum and cerebrospinal fluid bromide concentrations in the sheep trial; assay type: in vivo; settings: sheep, sheep
Method: Venous blood samples collected for biochemical analysis and haematocrit (PCV), and urine for USG, at three specific time points during the experiment for all animals: 1) on entry to the trial; 2) on date of entry to the end of trial protocol and, 3) on day of necropsy.
A full clinical examination was performed prior to euthanasia. At euthanasia, 100 I.U. heparin (Provet Riverina Pty Ltd) was injected into the jugular vein, followed shortly by Lethabarb (20 mL/40 kg LW). Immediately after euthanasia, the ventral articulation of C1 was exposed and cerebrospinal fluid (CSF) collected using a 23 g needle. The head was then removed and subjected to perfusion fixation. Briefly, the carotid arteries were exposed and a small catheter inserted and ligated to secure the perfusion lines. Two liters of 0.1% phosphate buffered saline (PBS) containing 3000 I.U of heparin/L was then slowly perfused via the ligated vessels at a pressure of 90 mm Hg using a Microgon peristaltic Pump (Microgon, Laguna Hills, Calif.). Once complete this was replaced with 4% paraformaldehyde (Sigma-Alrich) in 0.1% PBS and a further two liters allowed to perfuse slowly through the tissues of the head. Once complete, catheters were removed and the whole head placed at 4° C. overnight to complete fixation. Twenty-four hours post perfusion fixation the brain was removed from the skull and placed in 10% formal saline for storage until dissection for processing to wax sections.
Absorbance was measured with a spectrophotometer at 440 nm. […] The lower limit of quantification (LOQ) was 25 μg/mL.

SMILES: Br [bromide]
- adverse reactions (sheep; either treatment group (IV, PO)): No adverse reactions were noted
- tranquilising effect, subjective observation (sheep; IV group): mild tranquilising effect
- neurological effects (sheep; PO group): no discernable neurological effects
- rumen motility (sheep; PO group): no observed alteration
- animals showing evidence of mild anxiolysis [1]: 519
- Altered stance, number of animals affected ([1]; no toxic feed, 22 days): 4
- Fine tremor, number of animals affected ([1]; no toxic feed, 22 days): one
- time to falling ([2]; printed as Group 2 Day 2, 24 hours after single oral dose of bromide 300 mg/kg LW): 145.66 ± 22.07 s
- time to falling ([2]; printed as Group 2 Day 3, 48 hours after single oral dose of bromide 300 mg/kg LW): 124.75 ± 22.06 s
- time to falling ([2]; printed as Group 2 day 1, intoxicated sheep before single oral dose of bromide 300 mg/kg LW): 52.44 s
- Kp at 48 hours ([3]; cerebrospinal fluid and serum, oral, 300 mg/kg, mean ratio of serum bromide:CSF bromide, Group 3, acute bromide treatment plus lolitrem B, 48 hours): 0.81
- Kp at 22 days ([3]; cerebrospinal fluid and serum, oral, mean ratio of serum bromide:CSF bromide, Group 4, bromide prophylactic treatment plus lolitrem B): 0.91
- Kp at 22 days ([3]; cerebrospinal fluid and serum, oral, mean ratio of serum bromide:CSF bromide, Group 5, bromide prophylactic controls): 0.74
- serum bromide, factor Group 4 over Group 5 ([3]; prophylactic bromide plus lolitrem B versus prophylactic bromide alone, 22 days): 1.27

Reference: patent publication US9913858B2, “Prevention and treatment of toxicosis” (priority 2013, dated 2018)
